From patent US20020115710A1, “Composition and method” (priority 2000, published 2002) come the findings set out here.

The subject of one series is dogs. Nature of the series: Feeding safety study of dl-alpha lipoic acid in food: body weight, physical examination, serum biochemistry, hematology (Example 3). The class given is in vivo. From the text:
(§1) 30 adult, random source, dogs were utilized for this study. Dogs were at least 10 months of age, not pregnant, not lactating and of reasonable body weight prior to start of test. Animals were randomized into 5 groups for dietary treatment with 3 males and 3 females per each group.
All dogs were fed a control food (0 ppm dl-alpha-lipoic acid added) that met or exceeded all recommendations for nutrients as proposed by the American Association of Feed Control Officials (AAFCO 2000) during a 2 week prefeeding period (Table 1). […]
Test foods were the sole source of nutrients except for water. […] After dogs were selected and initial body weights taken, a food dose was calculated for each dog based on the expected ME of the food. Initial food dose calculations were based on the maintenance energy requirement (MER) for the dog modified by a factor to account for normal activity as calculated by the following formula: […]
Dogs were weighed weekly and had food doses adjusted as needed in order to feed enough food to maintain their optimal body weight. Optimal body weight was determined to be 3 on a 5 point scale. […] All measures of body weight and food intake were recorded. […]
Comparison of values for clinical chemistry, hematology and body weights vs baseline were analyzed by way of paired t-test on SAS for windows with significance set at P<0.05. […]

The next series has as its system GSH:GSSG ratio. Nature of the series: GSH:GSSG ratio in isolated blood lymphocytes of dogs fed dl-alpha lipoic acid (Example 3). Type of series: in vivo.
Text: as §1
All dogs were fed a control food (0 ppm dl-alpha-lipoic acid added) that met or exceeded all recommendations for nutrients as proposed by the American Association of Feed Control Officials (AAFCO 2000) during a 2 week prefeeding period (Table 1). Following the prefeeding period dogs were randomized into 5 treatment groups with one of the following dl-alpha lipoic acid target-inclusions (dry matter basis): 0 ppm, 150 ppm, 1500 ppm, 3000 ppm, 4500 ppm. In all diets, control and alpha lipoic acid, Vitamin E was added and was present at a level of 600-1000 International Units and Vitamin C was added at levels of 100-200 ppm.
Blood was collected aseptically for complete blood count, and blood biochemistry analysis 2 weeks prior to start and again at 0, 28, 56, 84, 112, 140 and 168 days of the study. In addition, 15 ml of whole blood was collected for isolation of lymphocytes at day 0, 28 and 84 of the dietary intervention.
Heparainzed whole blood was layered onto a 50 ml Accuspin conical centrifuge tube (Sigma Chemical) and an equal volume of Phosphate buffered saline (PBS) was added. Samples were centrifuged at 700 g for 30 minutes without brake. The monocyte layer was harvested, transferred to a 15 ml conical centrifuge tube, resuspended in 1-3 ml of PB, and centrifuged as before (First wash). A second wash was performed as the first wash. Finally, cells were harvested and suspended in perchloric acid (10%w/v) and frozen at −−70C until analysis.
Samples were transferred from −70° C. freezer into a cooler with dry ice in it. Vials were centrifuged at 12,000 rpm for 5 minutes in a refrigerated centrifuge. An aliquot of supernatant for glutathione (GSH) analysis was transferred to a conical test tube.
Derivatization of the acid soluble extracts was by the method of Reed and coworkers (Fariss et al) as modified by Jones (Jones et al)
Briefly, 150 μl extract or external standards were added into a 1.5 ml eppendorf tube followed by addition of 20 μl γ-glu-glu internal standard and 50 μl IAA added followed by mixing. The solution was adjusted to pH ˜10 (purple color) by using KOH—KHCO3 working solution. Solutions were incubated 1 hr. under room temperature in the dark. Sanger's reagent was added at the same volume as of the total volume and the solution was incubated overnight (20 hrs) in the dark at room temperature.
After incubation, the solution was centrifuged at 12000 rpm for 5 minutes with the supernatant transferred into another 1.5 ml eppendorf tube.
Solvents and separation conditions were as described (Fariss, Jones). Levels of GSH and GSSG were quantified relative to authentic standards. Gamma-glutamyl-glutamate was used as an internal standard to assess derivatization efficiency.
Comparison of values for clinical chemistry, hematology and body weights vs baseline were analyzed by way of paired t-test on SAS for windows with significance set at P<0.05. Means of values at each measured time point were separated by a one-way ANOVA with significance set at P<0.05. The difference in GSH:GSSG between day 84 and baseline were analyzed between groups by way of SAS for windows in a one-way ANOVA with significance set at P<0.05.

`O=C(O)CCCCC1CCSS1` (racemic) [dl-alpha-lipoic acid]: the “safety of chronic feeding in diet” value in the series on dogs (dog, in vivo) is on record as “safe”. Besides, in the series on dogs (dogs, no trend attributable to lipoic acid), the “vomiting during the study” value is reported as “Occasional vomiting was observed in several animals”. The “Difference in GSH:GSSG ratio-d 0 to d 84 compared to baseline food” value with GSH:GSSG ratio (150 ppm inclusion in extruded food, N 6) stood at 70 ± 20; in the series with GSH:GSSG ratio (1500 ppm inclusion in extruded food, N 6), 24 ± 7; in the series on GSH:GSSG ratio (3000 ppm inclusion in extruded food, N 4), 10 ± 4; in the series with GSH:GSSG ratio (4500 ppm inclusion in extruded food, N 4), 50 ± 36. In the series on GSH:GSSG ratio (84 days of feeding in diet), the “effect on reduced glutathione (GSH) to oxidized glutathione (GSSG) ratio” value is given as “improves”.
